# Results: US9487476B2, “Catechol diethers as potent anti-HIV agents” (priority 2011, dated 2016)
# Like-named read-outs stand apart in the source and are kept apart here.
# Legend:
# MT-2 human T-cells = experiment: Cytotoxicity, inhibition of MT-2 cell growth; type: cell-based
# WT HIV-1 (IIIB strain) = experiment: Anti-HIV-1 activity, protection of infected MT-2 cells (MTT); type: cell-based
# [1] = tested on: HIV-1 variant containing the Y181C (Tyr181Cys) mutation; experiment: Anti-HIV-1 activity against variant strain in MT-2 cells (MTT); type: cell-based
# [2] = tested on: HIV-1 variant containing the K103N/Y181C mutations; experiment: Anti-HIV-1 activity against double-mutant strain in MT-2 cells (MTT); type: cell-based
# [3] = Cytotoxicity, inhibition of MT-2 cell growth; type: cell-based, human; settings: human
# WT HIV-1 [4] = settings: Table 5, literature data (ref. 28), MT4 cells; cited from earlier work
# HIV-1 Y181C variant [5] = settings: Table 5, literature data (ref. 28), MT4 cells; cited from earlier work
# [6] = tested on: HIV-1 K103N/Y181C variant; settings: Table 5, literature data (ref. 28), MT4 cells; cited from earlier work
# MT4 cells = settings: Table 5, literature data (ref. 28); cited from earlier work
# WT HIV-1 [7] = settings: literature; read-out: reported anti-HIV activity, WT HIV-1; cited from earlier work
# [8] = tested on: HIV-1 K103N/Y181C variant; settings: literature; read-out: reported anti-HIV activity, K103N/Y181C; cited from earlier work
# HIV-1 Y181C variant [9] = settings: literature; read-out: reported anti-HIV activity, Y181C; cited from earlier work
# [10] = Table 4, MT-2 cells, read-out: Cytotoxicity (CC50)
# [11] = Table 5, MT-2 cells, read-out: Average Cytotoxicity (CC50)
# [12] = Table 4, catechol diether derivatives, MT-2 cells, read-out: Anti-HIV-1 Activity (EC50)
# [13] = Table 5, MT-2 cells, read-out: EC50 WT
# [14] = Table 5, MT-2 cells, read-out: EC50 Y181C
# [15] = Table 5, MT-2 cells, read-out: EC50 K103N/Y181C
# [16] = Human immunodeficiency virus 1, IIIB, MT2, read-out: Anti-HIV Activity (EC50)
# [17] = Human immunodeficiency virus 1, MT2, read-out: EC50 Y181C
# [18] = Human immunodeficiency virus 1, MT2, read-out: EC50 Y181C variant
# [19] = Human immunodeficiency virus 1, MT2, read-out: EC50 K103N/Y181C
# [20] = Human immunodeficiency virus 1, MT2, read-out: EC50 K103N/Y181C variant
# [21] = Human immunodeficiency virus 1, IIIB, MT2, running text, read-out: EC50 against WT HIV-1
structure (smiles),measurement,setting,value
N#C/C=C/c1cc(Cl)cc(Oc2ccc(F)cc2OCCn2ccc(=O)[nH]c2=O)c1 [JLJ516],CC50,MT-2 human T-cells; [10],62000 nM
same,CC50,MT-2 human T-cells; [11],63000 nM
same,EC50,WT HIV-1 (IIIB strain); [12],0.77 nM
same,EC50,WT HIV-1 (IIIB strain); [13],0.77 nM
same,EC50,[1]; [14],60 nM
same,EC50,[2]; [15],250 nM
O=c1ccn(CCOc2ccccc2Oc2ccc3[nH]ccc3c2)c(=O)[nH]1 [JLJ547],CC50,[3],53000 nM
same,EC50,WT HIV-1 (IIIB strain); [16],85 nM
O=c1ccn(CCOc2ccc(Cl)cc2Oc2ccc3occc3c2)c(=O)[nH]1 [JLJ539],CC50,[3],19000 nM
same,EC50,WT HIV-1 (IIIB strain); [16],800 nM
Cc1cc2cc(Oc3cc(Cl)ccc3OCCn3ccc(=O)[nH]c3=O)ccc2o1 [JLJ538],CC50,[3],8000 nM
same,EC50,WT HIV-1 (IIIB strain); [16],25 nM
"N#C/C=C/c1cc(Cl)cc(Oc2ccc(Cl)cc2OCCn2ccc(=O)[nH]c2=O)c1 [Compound 42, (E)-3-(3-chloro-5-(4-chloro-2-(2-(2,4-dioxo-3,4-dihydropyrimidin-1(2H)-yl)ethoxy)phenoxy)phenyl)acrylonitrile]",CC50,[3],10000 nM
same,therapeutic index,WT HIV-1 (IIIB strain); CC50 towards human T-cells vs WT EC50,"> 180,000"
same,EC50,"WT HIV-1 (IIIB strain); Human immunodeficiency virus 1, IIIB, MT2, read-out: EC50, initial WT assay",0.024 nM
same,EC50,"WT HIV-1 (IIIB strain); Human immunodeficiency virus 1, IIIB, MT2, running text, side-by-side re-assay, read-out: EC50 against WT HIV-1",0.055 nM
same,EC50,[1]; [17],49 nM
same,EC50,[1]; [18],49 nM
same,EC50,[2]; [19],220 nM
same,EC50,[2]; [20],220 nM
O=C1Nc2ccc(Cl)cc2[C@@](C#CC2CC2)(C(F)(F)F)O1 [efavirenz],EC50,WT HIV-1 [4],1.4 nM
same,EC50,HIV-1 Y181C variant [5],2 nM
same,EC50,[6],37 nM
"N#Cc1cc(Cl)cc(Oc2ccc(Cl)cc2OCCn2cc(Cl)c(=O)[nH]c2=O)c1 [Compound 27, 3-chloro-5-(4-chloro-2-(2-(5-chloro-2,4-dioxo-3,4-dihydropyrimidin-1(2H)-yl)ethoxy)phenoxy)benzonitrile]",CC50,MT-2 human T-cells; human,21000 nM
same,EC50,WT HIV-1 (IIIB strain); [21],17 nM
same,ratio between variant and WT activities (Y181C/WT),[1],14 fold
same,EC50,[1]; [17],240 nM
same,EC50,[1]; [18],240 nM
same,ratio between variant and WT activities (K103N/Y181C / WT),[2],34 fold
same,EC50,[2]; [19],570 nM
same,EC50,[2]; [20],570 nM
N#C/C=C/c1cc(Cl)cc(Oc2ccccc2OCCn2ccc(=O)[nH]c2=O)c1 [JLJ532],CC50,MT-2 human T-cells; [10],18000 nM
same,CC50,MT-2 human T-cells; [11],11000 nM
same,EC50,WT HIV-1 (IIIB strain); [12],0.31 nM
same,EC50,WT HIV-1 (IIIB strain); [13],0.31 nM
same,EC50,[1]; [14],46 nM
same,EC50,[2]; [15],24 nM
O=c1ccn(CCOc2ccc(Cl)cc2Oc2ccc3ccoc3c2)c(=O)[nH]1 [JLJ552],CC50,[3],50000 nM
same,EC50,WT HIV-1 (IIIB strain); [16],900 nM
N#C/C=C/c1cc(F)cc(Oc2ccc(F)cc2OCCn2ccc(=O)[nH]c2=O)c1 [JLJ506],CC50,MT-2 human T-cells; [10],> 45000 nM
same,CC50,MT-2 human T-cells; [11],≥ 45000 nM
same,EC50,WT HIV-1 (IIIB strain); [12],0.342 nM
same,EC50,WT HIV-1 (IIIB strain); [13],0.342 nM
same,EC50,[1]; [14],16 nM
same,EC50,[2]; [15],85 nM
"CNc1ccc(Oc2cc(Cl)cc(/C=C/C#N)c2)c(OCCn2ccc(=O)[nH]c2=O)c1 [Compound 43, (E)-3-(3-chloro-5-(2-(2-(2,4-dioxo-3,4-dihydropyrimidin-1(2H)-yl)ethoxy)-4-(methylamino)phenoxy)phenyl)acrylonitrile]",CC50,[3],30000 nM
same,EC50,WT HIV-1 (IIIB strain); [21],20 nM
same,EC50,[1]; [17],2800 nM
N#C/C=C/c1cc(F)cc(Oc2ccc(Cl)cc2OCCn2ccc(=O)[nH]c2=O)c1 [JLJ505],CC50,MT-2 human T-cells; [10],> 48000 nM
same,CC50,MT-2 human T-cells; [11],≥ 48000 nM
same,EC50,WT HIV-1 (IIIB strain); [12],3.2 nM
same,EC50,WT HIV-1 (IIIB strain); [13],3.2 nM
same,EC50,[1]; [14],150 nM
same,EC50,[2]; [15],900 nM
Cc1cc2cc(Oc3ccccc3OCCn3ccc(=O)[nH]c3=O)ccn2c1 [JLJ550],CC50,[3],9000 nM
same,EC50,WT HIV-1 (IIIB strain); [16],50 nM
Cc1cc(C#N)cc(C)c1Oc1nc(Nc2ccc(C#N)cc2)nc(N)c1Br [etravirine],EC50,HIV-1 Y181C variant [5],7 nM
same,EC50,[6],4 nM
N#C/C=C/c1cc(F)cc(Oc2ccccc2OCCn2ccc(=O)[nH]c2=O)c1 [JLJ510],CC50,MT-2 human T-cells; [10],70000 nM
same,CC50,MT-2 human T-cells; [11],85000 nM
same,EC50,WT HIV-1 (IIIB strain); [12],0.9 nM
same,EC50,WT HIV-1 (IIIB strain); [13],0.9 nM
same,EC50,[1]; [14],80 nM
same,EC50,[2]; [15],75 nM
"Cc1cc(/C=C/C#N)cc(C)c1Nc1ccnc(Nc2ccc(C#N)cc2)n1 [rilpivirine, 4-[[4-[[4-[(1E)-2-cyanoethenyl]-2,6-dimethylphenyl]amino]-2-pyrimidinyl]amino]benzonitrile]",CC50,MT4 cells,8000 nM
same,CC50,MT-2 human T-cells; human,> 1000 nM
same,EC50,WT HIV-1 [4],0.4 nM
same,EC50,HIV-1 Y181C variant [5],1.3 nM
same,EC50,[6],1 nM
N#Cc1cc2cc(Oc3ccccc3OCCn3ccc(=O)[nH]c3=O)ccn2c1 [JLJ555],CC50,[3],> 100000 nM
same,EC50,WT HIV-1 (IIIB strain); [16],0.38 nM
N#Cc1cc(Cl)cc(Oc2c(Cl)ccc(Cc3n[nH]c4nnccc34)c2F)c1 [Compound 73],EC50,WT HIV-1 [7],1 nM
same,EC50,[8],4 nM
Cc1cc(C)cc(Oc2c(CSCc3ccco3)c(C)[nH]c(=O)c2I)c1 [Compound 3],EC50,HIV-1 Y181C variant [9],< 10 nM
same,EC50,[8],< 10 nM
N#Cc1cc(Cl)cc(Oc2cc(OCc3n[nH]c4ccccc34)ccc2Cl)c1 [Compound 72],EC50,WT HIV-1 [7],4.7 nM
same,EC50,HIV-1 Y181C variant [9],13.8 nM
same,EC50,[8],141 nM
